Results taken from US4824836A, “Spiro (4,5) decone compounds” (Adir et Compagnie, priority 1987, dated 1989).

Tested on: Peritoneal rat mastocytes
Assay: mastocyte degranulation test in vitro (inhibition of compound 48/80-induced histamine granule release)
Assay type: cell-based
Conditions: rat peritoneal mastocytes incubated with compound 48/80; dose that inhibits histamine granule release by 50%
Protocol: The compounds of the invention and fenspiride, a prior art product taken as reference substance, were subjected to the mastocyte degranulation test:
Peritoneal rat mastocytes are incubated in vitro in the presence of compound 48/80, which causes histamine granules to be released. The protective effect of the tested compounds is expressed in IC50, that is to say the (molar) dose that inhibits this release by 50%.

IC50 [µM] | Mastocyte degranulation in vitro - IC50 | Compound
200 |  | CCCc1c(OCCN2CCC3(CC2)CNC(=O)O3)ccc(C(C)=O)c1O [Example 1a, 8-[2-(2-propyl-3-hydroxy-4-acetylphenoxy)ethyl]-1-oxa-2-oxo-3,8-diaza-spiro[4.5]decane]
200 |  | CCCc1c(OCCCCN2CCC3(CC2)CNC(=O)O3)ccc(C(C)=O)c1O [Example 1b, 8-[4-(2-propyl-3-hydroxy-4-acetylphenoxy)butyl]-1-oxa-2-oxo-3,8-diaza-spiro[4.5]decane]
1000 |  | CCCc1c(OCC(O)CN2CCC3(CC2)CNC(=O)O3)ccc(C(C)=O)c1O (centres unmarked) [Example 1c, 8-[3-(2-propyl-3-hydroxy-4-acetylphenoxy)-2-hydroxypropyl]-1-oxa-2-oxo-3,8-diaza-spiro[4.5]decane]
110 |  | CCCc1c(OCCCCCN2CCC3(CC2)CNC(=O)O3)ccc(C(C)=O)c1O [Example 1d, 8-[5-(2-propyl-3-hydroxy-4-acetylphenoxy)pentyl]-1-oxa-2-oxo-3,8-diaza-spiro[4.5]decane]
92 |  | CCCc1c(OCCCCCCN2CCC3(CC2)CNC(=O)O3)ccc(C(C)=O)c1O [Example 1e, 8-[6-(2-propyl-3-hydroxy-4-acetylphenoxy)hexyl]-1-oxa-2-oxo-3,8-diaza-spiro[4.5]decane]
100 |  | CCCc1c(OCCN2CCC3(CC2)OC(=O)NC3C)ccc(C(C)=O)c1O (centres unmarked) [Example 1f, 8-[2-(2-propyl-3-hydroxy-4-acetylphenoxy)ethyl]-1-oxa-2-oxo-3,8-diaza-4-methyl-spiro[4.5]decane]
250 |  | C=CCc1c(OCCCN2CCC3(CC2)CNC(=O)O3)ccc(C(C)=O)c1O [Example 1h, 8-[3-(2-allyl-3-hydroxy-4-acetylphenoxy)propyl]-1-oxa-2-oxo-3,8-diaza-spiro[4.5]decane]
100 |  | CCCc1c(OCCCN2CCC3(CC2)CNC(=O)O3)ccc2c(=O)cc(C(=O)OCC)oc12 [Example 1i, 8-[3-(2-ethoxycarbonyl-8-propyl-7-chrom-4-onyloxy)propyl]-1-oxa-2-oxo-3,8-diaza-spiro[4.5]decane]
100 |  | CCCc1c(OCCCN2CCC3(CC2)CNC(=O)O3)ccc2c1OCCC2=O [Example 1j]
830 |  | CCc1c(OCCCN2CCC3(CC2)CNC(=O)O3)ccc(C(C)=O)c1O [Example 1k, 8-[3-(2-ethyl-3-hydroxy-4-acetylphenoxy)propyl]-1-oxa-2-oxo-3,8-diaza-spiro[4.5]decane]
116 |  | CC(=O)c1ccc(OCCCN2CCC3(CC2)CNC(=O)O3)c(CC(C)C)c1O [Example 1l, 8-[3-(2-isobutyl-3-hydroxy-4-acetylphenoxy)propyl]-1-oxa-2-oxo-3,8-diaza-spiro[4.5]decane]

Further lines, the molecule ahead of its results:

Compound | IC50 [µM] | Mastocyte degranulation in vitro - IC50
CCCc1c(OCCCN2CCC3(CC2)CNC(=O)O3)ccc(C(C)=O)c1O [Example 1, 8-[3-(2-propyl-3-hydroxy-4-acetylphenoxy)propyl]-1-oxa-2-oxo-3,8-diaza-spiro[4.5]decane] | 240 | 
CCCc1c(OCCCN2CCC3(CC2)OC(=O)NC3C)ccc(C(C)=O)c1O (centres unmarked) [Example 2, 8-[3-(2-propyl-3-hydroxy-4-acetylphenoxy)propyl]-1-oxa-2-oxo-3,8-diaza-4-methyl-spiro[4.5]decane] | 200 | 
CCCc1c(OCCCN2CCC3(CC2)CNC(=O)O3)ccc2c(=O)cc(C(=O)O)oc12 [Example 3, 8-[3-(2-carboxy-8-propyl-7-chrom-4-onyloxy)propyl]-1-oxa-2-oxo-3,8-diaza-spiro[4.5]decane] | 1000 | 
CCCc1c(OCCCN2CCC3(CC2)CN(C(C)=O)C(=O)O3)ccc(C(C)=O)c1OC(C)=O [Example 4, 8-[3-(2-propyl-3-acetoxy-4-acetylphenoxy)propyl]-1-oxa-2-oxo-3,8-diaza-3-acetyl-spiro[4.5]decane] | 720 | 
C=CCc1c(OCCCN2CCC3(CC2)CN(C(C)=O)C(=O)O3)ccc(C(C)=O)c1OC(C)=O [Example 4a, 8-[3-(2-allyl-3-acetoxy-4-acetylphenoxy)propyl]-1-oxa-2-oxo-3,8-diaza-3-acetyl-spiro[4.5]decane] | 2500 | 
CCCc1c(OCCCCCN2CCC3(CC2)CN(C(C)=O)C(=O)O3)ccc(C(C)=O)c1OC(C)=O [Example 4b, 8-[5-(2-propyl-3-acetoxy-4-acetylphenoxy)pentyl]-1-oxa-2-oxo-3,8-diaza-3-acetyl-spiro[4.5]decane] | 1000 | 
CCc1c(OCCCN2CCC3(CC2)CN(C(C)=O)C(=O)O3)ccc(C(C)=O)c1OC(C)=O [Example 4c, 8-[3-(2-ethyl-3-acetoxy-4-acetylphenoxy)propyl]-1-oxa-2-oxo-3,8-diaza-3-acetyl-spiro[4.5]decane] | > 1000 | 
CC(=O)Oc1c(C(C)=O)ccc(OCCCN2CCC3(CC2)CN(C(C)=O)C(=O)O3)c1CC(C)C [Example 4d, 8-[3-(2-isobutyl-3-acetoxy-4-acetylphenoxy)propyl]-1-oxa-2-oxo-3,8-diaza-3-acetyl-spiro[4.5]decane] | 730 | 
C=CCc1c(OCCCN2CCC3(CC2)CN(C(C)=O)C(=O)O3)ccc(C(C)=O)c1O [Example 5, 8-[3-(2-allyl-3-hydroxy-4-acetylphenoxy)propyl]-1-oxa-2-oxo-3,8-diaza-3-acetyl-spiro[4.5]decane] | 750 | 
CCCc1c(OCCCN2CCC3(CC2)CNC(=O)O3)ccc(C(C)=O)c1OC(C)=O [Example 6, 8-[3-(2-propyl-3-acetoxy-4-acetylphenoxy)propyl]-1-oxa-2-oxo-3,8-diaza-spiro[4.5]decane] | 1200 | 
CCCc1c(OCCCCCN2CCC3(CC2)CNC(=O)O3)ccc(C(C)=O)c1OC(C)=O [Example 6a, 8-[5-(2-propyl-3-acetoxy-4-acetylphenoxy)pentyl]-1-oxa-2-oxo-3,8-diaza-spiro[4.5]decane] | 2000 | 
O=C1NCC2(CCN(CCc3ccccc3)CC2)O1 [fenspiride, reference compound] |  | inactive
